Data reported in BindingDB's records for doi:10.1021/jm00127a026 (Medical University of South Carolina, 1989).

Test: The apparent Km of compound as a substrate for partially purified mouse liver Folyl-polyglutamate synthase
Conditions: read-out: Ki

| SMILES | apparent Km [µM] |
| --- | --- |
| NCCCC(NC(=O)c1ccc(OCc2ccc3nc(N)[nH]c(=O)c3c2)cc1)C(=O)O (stereo not given) | 5.9 |
| NCCCC(NC(=O)c1ccc(OCc2ccc3nc[nH]c(=O)c3c2)cc1)C(=O)O (stereo not given) | 1.2 |
| NCCCC(NC(=O)c1ccc(SCc2ccc3nc[nH]c(=O)c3c2)cc1)C(=O)O (stereo not given) | 0.42 |

Second part, the compound after the results:

| apparent Km [µM] | SMILES |
| --- | --- |
| 0.0017 | NCCCC(NC(=O)c1ccc(NCc2ccc3nc(N)nc(N)c3c2Cl)cc1)C(=O)O (stereo not given) |
| 2.8 | NCCCC(NC(=O)c1ccc(SCc2ccc3nc(N)[nH]c(=O)c3c2)cc1)C(=O)O (stereo not given) |
